Results from ChEMBL document CHEMBL1201862, “PubChem BioAssay data set” (2004).
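96-well plates; 48 h exposure; 5 concentrations. Endpoints by linear interpolation between flanking doses. Not reached: highest tested concentration assigned. GI50 marks 50% less growth.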 Activity calls are given as the source filed them. Cut-off read from the data, not from the text of the source: active = GI50 up to about 1.1 µM and inactive = higher.

How the values were obtained:
Test in all cases: NCI anticancer screen, dose series, 48 h
OVCAR-4 = tested on: OVCAR-4
MDA-MB-231 = tested on: MDA-MB-231
A498 = tested on: A498
UACC-62 = tested on: UACC-62
DU-145 = tested on: DU-145
SF-295 = tested on: SF-295
SR = tested on: SR
Hs-578T = tested on: Hs-578T
RPMI-8226 = tested on: RPMI-8226
OVCAR-5 = tested on: OVCAR-5
IGROV-1 = tested on: IGROV-1
SNB-75 = tested on: SNB-75
UO-31 = tested on: UO-31
MDA-N = tested on: MDA-N
PC-3 = tested on: PC-3
U-251 = tested on: U-251

Cc1cc(C)nc(SC(C)C(=O)N/N=C/c2ccc(OCc3ccccc3)cc2)n1 (configuration not stated)
GI50 (OVCAR-4): 15.7 µM (inactive) | GI50 (MDA-MB-231): 19.7 µM (inactive) | GI50 (A498): 31.8 µM (inactive) | GI50 (UACC-62): 14.5 µM (inactive) | GI50 (DU-145): 37.7 µM (inactive) | GI50 (SF-295): 19.1 µM (inactive) | GI50 (SR): 7.89 µM (inactive) | GI50 (Hs-578T): 52 µM (inactive) | GI50 (RPMI-8226): 13.3 µM (inactive) | GI50 (OVCAR-5): 78.9 µM (inactive) | GI50 (IGROV-1): 54.8 µM (inactive) | GI50 (SNB-75): 33 µM (inactive) | GI50 (UO-31): 32.1 µM (inactive) | GI50 (MDA-N): 22.8 µM (inactive) | GI50 (PC-3): 22.4 µM (inactive) | GI50 (U-251): 17 µM (inactive)

COc1cccc2c3cccc(OC)c3c3[nH]cnc3c12
GI50 (OVCAR-4): 5.45 µM (inactive) | GI50 (MDA-MB-231): 1.87 µM (inactive) | GI50 (A498): 18.1 µM (inactive) | GI50 (UACC-62): 16.7 µM (inactive) | GI50 (DU-145): 1.31 µM (inactive) | GI50 (SF-295): 4.78 µM (inactive) | GI50 (SR): 2.16 µM (inactive) | GI50 (Hs-578T): 0.394 µM (active) | GI50 (RPMI-8226): 2.53 µM (inactive) | GI50 (OVCAR-5): 5.37 µM (inactive) | GI50 (IGROV-1): 1.76 µM (inactive) | GI50 (SNB-75): 4.3 µM (inactive) | GI50 (UO-31): 1.66 µM (inactive) | GI50 (MDA-N): 1.85 µM (inactive) | GI50 (PC-3): 2.03 µM (inactive) | GI50 (U-251): 1.67 µM (inactive)

CCCNC1=C2CC(C)CC(OC)[C@@H](O)[C@H](C)/C=C(\C)C(OC(N)=O)C(OC)/C=C\C=C(/C)C(=O)NC(=CC1=O)C2=O (some centres not stated)
GI50 (OVCAR-4): 26.6 µM (inactive) | GI50 (MDA-MB-231): 0.318 µM (active) | GI50 (A498): 0.944 µM (active) | GI50 (UACC-62): 0.054 µM (active) | GI50 (DU-145): 0.111 µM (active) | GI50 (SF-295): 0.222 µM (active) | GI50 (SR): 0.31 µM (active) | GI50 (Hs-578T): 3.03 µM (inactive) | GI50 (RPMI-8226): 0.762 µM (active) | GI50 (OVCAR-5): 0.0311 µM (active) | GI50 (IGROV-1): 0.498 µM (active) | GI50 (SNB-75): 0.318 µM (active) | GI50 (UO-31): 2.94 µM (inactive) | GI50 (MDA-N): 0.118 µM (active) | GI50 (PC-3): 0.411 µM (active) | GI50 (U-251): 0.579 µM (active)

O=C(Oc1ccc(OC(Oc2ccccc2)c2ccccc2)cc1)c1ccccc1 (configuration not stated)
GI50 (OVCAR-4): 15 µM (inactive) | GI50 (MDA-MB-231): 28 µM (inactive) | GI50 (A498): 18.6 µM (inactive) | GI50 (UACC-62): > 31.6 µM (inactive) | GI50 (DU-145): > 31.6 µM (inactive) | GI50 (SF-295): 14.7 µM (inactive) | GI50 (SR): 19.1 µM (inactive) | GI50 (Hs-578T): > 31.6 µM (inactive) | GI50 (RPMI-8226): 13.2 µM (inactive) | GI50 (OVCAR-5): > 74.1 µM (inactive) | GI50 (IGROV-1): 15.2 µM (inactive) | GI50 (SNB-75): 27.5 µM (inactive) | GI50 (UO-31): 16 µM (inactive) | GI50 (MDA-N): 14.4 µM (inactive) | GI50 (PC-3): 25.6 µM (inactive) | GI50 (U-251): > 75.7 µM (inactive)

N#Cc1c(Cl)nc2ccccc2c1N=[N+]=[N-]
GI50 (OVCAR-4): 1.91 µM (inactive) | GI50 (MDA-MB-231): 1.89 µM (inactive) | GI50 (A498): 21.7 µM (inactive) | GI50 (UACC-62): 2.63 µM (inactive) | GI50 (DU-145): 14.9 µM (inactive) | GI50 (SF-295): 8.55 µM (inactive) | GI50 (SR): 0.875 µM (active) | GI50 (Hs-578T): 5.81 µM (inactive) | GI50 (RPMI-8226): 2.11 µM (inactive) | GI50 (OVCAR-5): 6.61 µM (inactive) | GI50 (IGROV-1): 1.95 µM (inactive) | GI50 (SNB-75): 8.67 µM (inactive) | GI50 (UO-31): 4.71 µM (inactive) | GI50 (MDA-N): 13.3 µM (inactive) | GI50 (PC-3): 2.65 µM (inactive) | GI50 (U-251): 5.19 µM (inactive)

Cc1c(C)n(-c2ccccc2)c2nc([S+](C)[O-])nc([S+](C)[O-])c12 (configuration not stated)
GI50 (OVCAR-4): 4.85 µM (inactive) | GI50 (MDA-MB-231): 4.74 µM (inactive) | GI50 (A498): 13.1 µM (inactive) | GI50 (UACC-62): 6.03 µM (inactive) | GI50 (DU-145): 14.4 µM (inactive) | GI50 (SF-295): 17.6 µM (inactive) | GI50 (SR): 0.809 µM (active) | GI50 (Hs-578T): 25.5 µM (inactive) | GI50 (RPMI-8226): 1.66 µM (inactive) | GI50 (OVCAR-5): 15.3 µM (inactive) | GI50 (IGROV-1): 3.79 µM (inactive) | GI50 (SNB-75): 9.1 µM (inactive) | GI50 (UO-31): 7.74 µM (inactive) | GI50 (MDA-N): 3.68 µM (inactive) | GI50 (PC-3): 7 µM (inactive) | GI50 (U-251): 8.53 µM (inactive)

COC1C(O)C(O[C@H]2CC[C@@]3(C)C(CC[C@@H]4[C@@H]3CC[C@]3(C)[C@@H](C(C)OC5OC(CO)C(O)C(O)C5O)CC[C@]43O)C2)OC(C)C1OC1OC(CO)C(O)C(O)C1O (some centres not stated)
GI50 (OVCAR-4): > 100 µM (inactive) | GI50 (MDA-MB-231): > 100 µM (inactive) | GI50 (A498): > 100 µM (inactive) | GI50 (UACC-62): > 100 µM (inactive) | GI50 (DU-145): > 100 µM (inactive) | GI50 (SF-295): > 100 µM (inactive) | GI50 (SR): > 100 µM (inactive) | GI50 (Hs-578T): > 100 µM (inactive) | GI50 (RPMI-8226): > 100 µM (inactive) | GI50 (OVCAR-5): > 100 µM (inactive) | GI50 (IGROV-1): > 100 µM (inactive) | GI50 (SNB-75): > 100 µM (inactive) | GI50 (UO-31): > 100 µM (inactive) | GI50 (MDA-N): > 100 µM (inactive) | GI50 (PC-3): > 100 µM (inactive) | GI50 (U-251): > 100 µM (inactive)

O=c1[nH]c(-c2ccccc2)nc2c1sc1nc3ccccc3n12
GI50 (OVCAR-4): > 81.3 µM (inactive) | GI50 (MDA-MB-231): > 100 µM (inactive) | GI50 (A498): > 100 µM (inactive) | GI50 (UACC-62): > 100 µM (inactive) | GI50 (DU-145): > 100 µM (inactive) | GI50 (SF-295): > 100 µM (inactive) | GI50 (SR): > 100 µM (inactive) | GI50 (Hs-578T): 26.7 µM (inactive) | GI50 (RPMI-8226): 1.52 µM (inactive) | GI50 (OVCAR-5): > 100 µM (inactive) | GI50 (IGROV-1): > 100 µM (inactive) | GI50 (SNB-75): > 63.1 µM (inactive) | GI50 (UO-31): > 100 µM (inactive) | GI50 (MDA-N): > 100 µM (inactive) | GI50 (PC-3): > 100 µM (inactive) | GI50 (U-251): > 87.7 µM (inactive)

C[C@H]1C(=O)C2=C[C@H]1CCC(=O)[C@]1(C)CCCC(C)(C)[C@H]1C[C@H]2O
GI50 (OVCAR-4): 48.6 µM (inactive) | GI50 (MDA-MB-231): 5.38 µM (inactive) | GI50 (A498): 12.1 µM (inactive) | GI50 (UACC-62): 36.5 µM (inactive) | GI50 (DU-145): 28.2 µM (inactive) | GI50 (SF-295): 33.3 µM (inactive) | GI50 (SR): 17.5 µM (inactive) | GI50 (Hs-578T): 19 µM (inactive) | GI50 (RPMI-8226): 12.5 µM (inactive) | GI50 (OVCAR-5): 25.4 µM (inactive) | GI50 (IGROV-1): 37.9 µM (inactive) | GI50 (SNB-75): 16.7 µM (inactive) | GI50 (UO-31): 27.4 µM (inactive) | GI50 (MDA-N): 31.6 µM (inactive) | GI50 (PC-3): 33.3 µM (inactive) | GI50 (U-251): 15.1 µM (inactive)

N#C[BH2-][n+]1ccc(C(=O)NNCc2cccc(C(F)(F)F)c2)cc1
GI50 (OVCAR-4): 6.14 µM (inactive) | GI50 (MDA-MB-231): 10.4 µM (inactive) | GI50 (A498): 21.6 µM (inactive) | GI50 (UACC-62): 4.59 µM (inactive) | GI50 (DU-145): 33.1 µM (inactive) | GI50 (SF-295): 6.68 µM (inactive) | GI50 (SR): 26.9 µM (inactive) | GI50 (Hs-578T): 4.59 µM (inactive) | GI50 (RPMI-8226): 21.4 µM (inactive) | GI50 (OVCAR-5): 21.2 µM (inactive) | GI50 (IGROV-1): 30.1 µM (inactive) | GI50 (SNB-75): 3.85 µM (inactive) | GI50 (UO-31): 11.9 µM (inactive) | GI50 (MDA-N): 10.2 µM (inactive) | GI50 (PC-3): 13.8 µM (inactive) | GI50 (U-251): 7.71 µM (inactive)

CCOC(=O)c1sc2ncnc(N)c2c1C
GI50 (OVCAR-4): 20.4 µM (inactive) | GI50 (MDA-MB-231): > 100 µM (inactive) | GI50 (A498): 24.4 µM (inactive) | GI50 (UACC-62): 35.3 µM (inactive) | GI50 (DU-145): 68.7 µM (inactive) | GI50 (SF-295): 79.4 µM (inactive) | GI50 (SR): 24.8 µM (inactive) | GI50 (Hs-578T): 44.1 µM (inactive) | GI50 (RPMI-8226): 95.5 µM (inactive) | GI50 (OVCAR-5): 36.3 µM (inactive) | GI50 (IGROV-1): 22.1 µM (inactive) | GI50 (SNB-75): 35.1 µM (inactive) | GI50 (UO-31): 82.4 µM (inactive) | GI50 (MDA-N): 41.8 µM (inactive) | GI50 (PC-3): 68.5 µM (inactive) | GI50 (U-251): > 100 µM (inactive)

C=C1[C@H](OCC(C)C)[C@@H](OC(=O)C(C)CC)[C@@H](O)C(C)(C)/C=C/[C@H](C)C(=O)[C@@]2(O)C[C@H](C)[C@H](O)[C@@H]2[C@H]1OC(=O)C(C)CC (some centres not stated)
GI50 (OVCAR-4): 5.45 µM (inactive) | GI50 (MDA-MB-231): 4.01 µM (inactive) | GI50 (A498): 3.28 µM (inactive) | GI50 (UACC-62): 3.92 µM (inactive) | GI50 (DU-145): 7.83 µM (inactive) | GI50 (SF-295): 2.39 µM (inactive) | GI50 (SR): 3.84 µM (inactive) | GI50 (Hs-578T): 1.66 µM (inactive) | GI50 (RPMI-8226): 0.516 µM (active) | GI50 (OVCAR-5): 6.37 µM (inactive) | GI50 (IGROV-1): 7.98 µM (inactive) | GI50 (SNB-75): 1.41 µM (inactive) | GI50 (UO-31): 0.499 µM (active) | GI50 (MDA-N): 1.26 µM (inactive) | GI50 (PC-3): 2.82 µM (inactive) | GI50 (U-251): 5.82 µM (inactive)
